The target of data set [1] is T1, Recombinant human PI3Kγ (full length human PI3K p110γ) (Homo sapiens, UniProt P48736).
T1 construct: full length human PI3K p110γ fused with a His6-tag at the C-terminus; His6 (C); purchased ALEXIS BIOCHEMICALS #201-055-C010; host or cells: S. frugiperda 9 insect cells
As to the kind of experiment: Kinase assay of PI3Kγ (solid-phase lipid kinase assay). The class given is biochemical.

The mark [2] stands for this setting: Table 1, isozyme not given, read-out: in vitro.
Setting [3] is: in vitro PI3K-γ inhibitory activity, class symbols, read-out: in vitro PI3K-gamma.

Like-named read-outs stand apart in the source and are kept apart here.

T1 sequence (P48736 whole entry, the tested form may be a part): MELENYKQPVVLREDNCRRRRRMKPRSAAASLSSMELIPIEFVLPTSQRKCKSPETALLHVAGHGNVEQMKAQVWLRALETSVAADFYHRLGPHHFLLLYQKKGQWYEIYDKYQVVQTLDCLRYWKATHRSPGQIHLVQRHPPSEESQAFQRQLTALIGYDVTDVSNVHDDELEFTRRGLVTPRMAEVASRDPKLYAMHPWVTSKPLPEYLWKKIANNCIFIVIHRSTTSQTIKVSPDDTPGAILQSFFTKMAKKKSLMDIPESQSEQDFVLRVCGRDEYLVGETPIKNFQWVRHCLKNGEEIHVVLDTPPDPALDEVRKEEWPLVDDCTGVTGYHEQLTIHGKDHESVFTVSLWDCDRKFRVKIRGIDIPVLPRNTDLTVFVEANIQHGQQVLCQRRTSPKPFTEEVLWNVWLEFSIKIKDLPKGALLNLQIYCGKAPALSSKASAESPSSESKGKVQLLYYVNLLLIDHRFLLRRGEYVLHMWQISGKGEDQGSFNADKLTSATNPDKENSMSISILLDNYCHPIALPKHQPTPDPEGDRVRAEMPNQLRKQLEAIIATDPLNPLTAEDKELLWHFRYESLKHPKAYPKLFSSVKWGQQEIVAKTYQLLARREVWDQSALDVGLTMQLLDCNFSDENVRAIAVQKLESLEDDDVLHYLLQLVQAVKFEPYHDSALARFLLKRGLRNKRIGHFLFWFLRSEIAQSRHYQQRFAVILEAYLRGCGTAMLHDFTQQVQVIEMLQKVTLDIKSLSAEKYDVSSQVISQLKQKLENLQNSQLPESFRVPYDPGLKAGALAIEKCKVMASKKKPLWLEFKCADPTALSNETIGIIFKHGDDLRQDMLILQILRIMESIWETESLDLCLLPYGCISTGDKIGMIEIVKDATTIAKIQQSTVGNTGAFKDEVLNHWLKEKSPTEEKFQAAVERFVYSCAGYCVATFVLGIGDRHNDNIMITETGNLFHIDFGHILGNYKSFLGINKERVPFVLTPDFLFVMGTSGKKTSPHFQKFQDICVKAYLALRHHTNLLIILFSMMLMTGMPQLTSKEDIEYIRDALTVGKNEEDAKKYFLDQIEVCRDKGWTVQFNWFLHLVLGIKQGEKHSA

For the molecule `COc1cc2c(cc1OC)C1=NCCN1C(/C=C(\O)c1ccc(C#N)cc1)=N2` [Example 1-187], the melting point (commonly the temperature of the solid-liquid transition) is 307 to 308 °C. The IC50 in data set [1] (setting [2]) was over 2000 nM.

`O/C(=C\C1=Nc2ccc(Cl)cc2C2=NCCN12)c1cccnc1` [Example 1-189] had a melting point of 260 °C. In addition, in data set [1] (setting [2]), the IC50 lay within 500 to 2000 nM.

In turn, `O/C(=C\C1=Nc2cc(Cl)ccc2C2=NCCN12)c1ccccc1` [Example 1-190] registered a melting point of 186 to 188 °C. Moreover, the IC50 in data set [1] (setting [2]) lay within 500 to 2000 nM.

`O=[N+]([O-])c1ccc2c(c1)C1=NCCN1C(/C=C(\O)c1ccccc1)=N2` [Example 1-191]: the melting point lay within 259 to 262 °C. The IC50 in data set [1] (setting [2]) was over 2000 nM.

Molecule `O=[N+]([O-])c1ccc2c(c1)C1=NCCN1C(/C=C(\O)c1cccnc1)=N2` [Example 1-192] yielded a melting point of 306 °C. Besides, the IC50 in data set [1] (setting [2]) fell in the range of 500 to 2000 nM.

`CCC(C(=O)c1ccccc1)C1=Nc2ccccc2C2=NCCN21` (stereo not shown) [Example 1-193] came in with a melting point of 156 to 160 °C. Further, the IC50 in data set [1] (setting [2]) is over 2000 nM.

As to `COc1c(OCC2CCCCO2)ccc2c1N=C(/C=C(\O)c1cccnc1)N1CCN=C21` (stereo not shown) [Example 1-194], the melting point was 233 to 234 °C. Moreover, in data set [1] (setting [2]), the IC50 is under 100 nM.

`COc1c(OCC#N)ccc2c1N=C(/C=C(\O)c1cccnc1)N1CCN=C21` [Example 1-195] had a melting point of 284 to 285 °C. The IC50 in data set [1] (setting [2]) is under 100 nM.

`COc1c(OCc2nn[nH]n2)ccc2c1N=C(/C=C(\O)c1cccnc1)N1CCN=C21` [Example 1-196] gave a melting point of 229 to 231 °C. Besides, the IC50 in data set [1] (setting [2]) was under 100 nM.

Molecule `COc1c(OCCCC(=O)N2CCOCC2)ccc2c1N=C(/C=C(\O)c1cccnc1)N1CCN=C21.Cl` [Example 1-198] returned a melting point of 215 to 216 °C. For the same molecule, in data set [1] (setting [2]), the IC50 was under 100 nM.

`COC(=O)CCCOc1c(OC)ccc2c1N=C(/C=C(\O)c1cccnc1)N1CCN=C21.Cl` [Example 1-199] came in with a melting point of 178 to 179 °C. Further, the IC50 in data set [1] (setting [2]) was under 100 nM.

In the case of `COc1ccc2c(c1OCC(=O)O)N=C(/C=C(\O)c1cccnc1)N1CCN=C21.Cl` [Example 1-200], the melting point was 286 °C (dec.). Also, the IC50 in data set [1] (setting [2]) was in the range of 100 to 500 nM.

In the case of `Cl.O=C(O)CCc1ccc2c(c1)N=C(/C=C(\O)c1cccnc1)N1CCN=C21` [Example 1-201], the melting point was 273 °C (dec.). Moreover, the IC50 in data set [1] (setting [2]) is under 100 nM.

As to `Cl.O=C(O)CCCc1ccc2c(n1)N=C(/C=C(\O)c1cccnc1)N1CCN=C21` [Example 1-202], the melting point was 285 °C (dec.). In addition, the IC50 in data set [1] (setting [2]) is 100 to 500 nM.

`CN(C)C(=O)NCCc1ccc2c(n1)N=C(/C=C(\O)c1cccnc1)N1CCN=C21` [Example 1-203] showed a melting point of 228 °C. Moreover, in data set [1] (setting [2]), the IC50 lay in the range of 100 to 500 nM.

`O=C(NCCc1ccc2c(n1)N=C(/C=C(\O)c1cccnc1)N1CCN=C21)N1CCOCC1` [Example 1-204]: the melting point stood at 262 °C. The IC50 in data set [1] (setting [2]) lay in the range of 500 to 2000 nM.

Turning to `O=C(NCCc1ccc2c(n1)N=C(/C=C(\O)c1cccnc1)N1CCN=C21)N1CCCCC1` [Example 1-205], the melting point amounted to 246 °C. Besides, the IC50 in data set [1] (setting [2]) fell in the range of 100 to 500 nM.

In turn, `Cl.O=C(O)CCCCc1ccc2c(n1)N=C(/C=C(\O)c1cccnc1)N1CCN=C21` [Example 1-206] had a melting point of 267 °C. Moreover, the IC50 in data set [1] (setting [2]) is under 100 nM.

Regarding `CC(=O)Nc1ccc(/C(O)=C/C2=Nc3c(CN4CCOCC4)cccc3C3=NCCN23)cn1` [Example 1-208], the melting point was 253 °C (dec.). In data set [1] (setting [2]), the IC50 was 100 to 500 nM.

For `Cl.O/C(=C\C1=Nc2cc(N3CCCC(O)C3)ccc2C2=NCCN12)c1ccc2[nH]cnc2c1` (stereo not shown) [Example 1-210], the melting point was over 300 °C. Besides, in data set [1] (setting [2]), the IC50 is under 100 nM.

`O=C(NC1=Nc2cc(N3CCOCC3)ccc2C2=NCCN12)c1cccnc1` [Example 2-7] came in with a melting point of 243 °C. Moreover, the IC50 in data set [1] (setting [3]) lay in the range of 100 to 500 nM.

The molecule `Cl.O=C(NC1=Nc2cc(N3CCOCC3)ccc2C2=NCCN12)c1cccnc1` [Example 2-8] displayed a melting point of 283 °C. The IC50 in data set [1] (setting [3]) is under 100 nM.

`CC(=O)Nc1ccc(C(=O)NC2=Nc3cc(N4CCOCC4)ccc3C3=NCCN23)cc1.Cl` [Example 2-9] returned a melting point of 249 °C. The IC50 in data set [1] (setting [3]) lay in the range of 100 to 500 nM.

Regarding `O=C(NC1=Nc2cc(N3CCOCC3)ccc2C2=NCCN12)c1ccc2[nH]cnc2c1` [Example 2-10], the melting point is 250 °C (dec.). Further, the IC50 in data set [1] (setting [3]) lay within 100 to 500 nM.

Turning to `Cl.O=C(NC1=Nc2cc(N3CCOCC3)ccc2C2=NCCN12)c1ccc2[nH]cnc2c1` [Example 2-11], the melting point is 294 °C (dec.). Moreover, in data set [1] (setting [3]), the IC50 was under 100 nM.

Take `Cc1ncccc1C(=O)NC1=Nc2cc(N3CCOCC3)ccc2C2=NCCN12` [Example 2-12]: the melting point is 199 °C (dec.). For the same molecule, the IC50 in data set [1] (setting [3]) lay in the range of 100 to 500 nM.

`Cc1ccc(C(=O)NC2=Nc3cc(N4CCOCC4)ccc3C3=NCCN23)cn1` [Example 2-13] yielded a melting point of 209 °C. Also, the IC50 in data set [1] (setting [3]) was under 100 nM.

`Cc1nc(C)c(C(=O)NC2=Nc3cc(N4CCOCC4)ccc3C3=NCCN23)s1` [Example 2-16]: the melting point was 233 °C (dec.). For the same molecule, the IC50 in data set [1] (setting [3]) lay within 100 to 500 nM.

With `Cc1nc(C)c(C(=O)NC2=Nc3cc(N4CCOCC4)ccc3C3=NCCN23)s1.Cl` [Example 2-17], the melting point was 255 °C (dec.). Further, in data set [1] (setting [3]), the IC50 is under 100 nM.

On to `CCn1nc(C)cc1C(=O)NC1=Nc2cc(N3CCOCC3)ccc2C2=NCCN12` [Example 2-18], for which the melting point stood at 232 °C. Further, the IC50 in data set [1] (setting [3]) was in the range of 100 to 500 nM.

Turning to `COc1ccc2c(c1)N=C(NC(=O)c1cccnc1)N1CCN=C21` [Example 2-20], the melting point is 281 °C (dec.). Moreover, the IC50 in data set [1] (setting [3]) is 100 to 500 nM.

In the case of `COc1ccc2c(c1)N=C(NC(=O)c1ccc(NC(C)=O)nc1)N1CCN=C21.Cl` [Example 2-22], the melting point is 198 to 205 °C (dec.). In addition, the IC50 in data set [1] (setting [3]) is 100 to 500 nM.

For `COc1ccc2c(c1)N=C(NC(=O)c1ccc(N)nc1)N1CCN=C21` [Example 2-23], the melting point lay in the range of 279 to 282 °C. For the same molecule, the IC50 in data set [1] (setting [3]) was under 100 nM.

As for `COc1ccc2c(c1)N=C(NC(=O)c1ccc3[nH]cnc3c1)N1CCN=C21` [Example 2-25], the melting point was found to be 186 °C. The IC50 in data set [1] (setting [3]) is under 100 nM.

With `Cc1ccc2c(c1)N=C(NC(=O)c1cccnc1)N1CCN=C21` [Example 2-27], the melting point came out at 207 °C. Also, in data set [1] (setting [3]), the IC50 is under 100 nM.

The molecule `Cc1ccc2c(c1)N=C(NC(=O)c1ccc3[nH]cnc3c1)N1CCN=C21` [Example 2-29] gave a melting point of 190 °C. Further, the IC50 in data set [1] (setting [3]) was under 100 nM.

As to `Cc1ccc2c(c1)N=C(NC(=O)c1ccc3[nH]cnc3c1)N1CCN=C21.Cl` [Example 2-30], the melting point was 295 °C. Further, in data set [1] (setting [3]), the IC50 lay in the range of 100 to 500 nM.

For the molecule `Cc1ccc2c(c1)N=C(NC(=O)c1cccs1)N1CCN=C21` [Example 2-31], the melting point came to 182 °C. Further, the IC50 in data set [1] (setting [3]) was 100 to 500 nM.

Molecule `O=C(NC1=Nc2cc(C(F)(F)F)ccc2C2=NCCN12)c1cccnc1` [Example 2-33] showed a melting point of 229 °C. Besides, the IC50 in data set [1] (setting [3]) lay within 100 to 500 nM.

Molecule `Cl.O=C(NC1=Nc2cc(C(F)(F)F)ccc2C2=NCCN12)c1cccnc1` [Example 2-34] had a melting point of 275 °C. The IC50 in data set [1] (setting [3]) was under 100 nM.

For `Cl.O=C(NC1=Nc2cc(C(F)(F)F)ccc2C2=NCCN12)c1cncc(O)c1` [Example 2-35], the melting point was 237 °C (dec.). The IC50 in data set [1] (setting [3]) is under 100 nM.

With `O=C(NC1=Nc2cc(C(F)(F)F)ccc2C2=NCCN12)c1ccc2[nH]cnc2c1` [Example 2-36], the melting point is over 300 °C. The IC50 in data set [1] (setting [3]) was in the range of 100 to 500 nM.

For `Cl.O=C(NC1=Nc2cc(C(F)(F)F)ccc2C2=NCCN12)c1ccc2[nH]cnc2c1` [Example 2-37], the melting point was 288 °C. Moreover, the IC50 in data set [1] (setting [3]) is under 100 nM.

The molecule `Cl.O=C(NC1=Nc2cc(Cl)ccc2C2=NCCN12)c1cccnc1` [Example 2-38] displayed a melting point of 308 °C. Also, the IC50 in data set [1] (setting [3]) is 100 to 500 nM.

As to `O=C(NC1=Nc2cc(Cl)ccc2C2=NCCN12)c1ccc2[nH]cnc2c1` [Example 2-39], the melting point is 288 °C. Also, the IC50 in data set [1] (setting [3]) is under 100 nM.

With `Cl.O=C(NC1=Nc2cc(Cl)ccc2C2=NCCN12)c1cccs1` [Example 2-41], the melting point came to 328 °C. Moreover, in data set [1] (setting [3]), the IC50 was 100 to 500 nM.

`Cl.O=C(NC1=Nc2cc(Br)ccc2C2=NCCN12)c1cccnc1` [Example 2-42] yielded a melting point of 243 °C. Also, in data set [1] (setting [3]), the IC50 was under 100 nM.

As for `Cc1ncccc1C(=O)NC1=Nc2cc(Br)ccc2C2=NCCN12.Cl` [Example 2-43], the melting point was 252 °C (dec.). Besides, the IC50 in data set [1] (setting [3]) lay in the range of 100 to 500 nM.

Turning to `O=C(NC1=Nc2cc(Br)ccc2C2=NCCN12)c1ccc2[nH]cnc2c1` [Example 2-44], the melting point was 262 °C. Also, the IC50 in data set [1] (setting [3]) was in the range of 100 to 500 nM.

`Cl.O=C(NC1=Nc2cc(Br)ccc2C2=NCCN12)c1ccc2[nH]cnc2c1` [Example 2-45]: the melting point was found to be 278 °C. Besides, the IC50 in data set [1] (setting [3]) was under 100 nM.

With `COc1ccc2c(c1OC)N=C(NC(=O)c1ccc(NC(C)=O)nc1)N1CCN=C21` [Example 2-48], the melting point lay in the range of 306 to 307 °C. Also, the IC50 in data set [1] (setting [3]) is under 100 nM.

Consider `COc1ccc2c(c1OC)N=C(NC(=O)c1ccc3[nH]cnc3c1)N1CCN=C21` [Example 2-49], for which the melting point was 289 °C (dec.). For the same molecule, the IC50 in data set [1] (setting [3]) is under 100 nM.

On to `COc1ccc2c(c1OC)N=C(NC(=O)c1cnc3[nH]cnc3c1)N1CCN=C21` [Example 2-51], for which the melting point was 233 °C (dec.). The IC50 in data set [1] (setting [3]) is under 100 nM.

The values above are taken from patent US7511041B2, “Fused azole-pyrimidine derivatives” (Bayer Pharmaceuticals Corporation, priority 2002, dated 2009).
